Results from US20220268782A1, “METHODS FOR PREDICTING AND TREATING CARDIAC DYSFUNCTION” (INSERM (INSTITUT NATIONAL DE LA SANTÉ EAT DE LA RECHERCHE …, priority 2019, published 2022).

How the values were obtained:
Assay type in all cases: cell-based
C2C12 myoblasts [1] = test: PA-induced senescence in C2C12 myoblasts (immunoblot of senescence markers, EdU incorporation); conditions: C2C12 cells
Procedure: (§1) Cells were washed briefly with ice-cold 1×PBS, scraped in 400 μL T-PER lysis buffer (ThermoFisher) supplemented with 0.1 mM phenylmethylsulphonyl fluoride (PMSF) and protease/phosphatase inhibitor cocktail tablet (ThermoFisher). Pulverised tissue samples (20-30 mg) were lysed in the same buffer accelerated by sonication and passing through a 21 G needle. To pellet any debris, lysates were centrifuged at 10,000 g for 10 minutes at 4° C., with the supernatant transferred to fresh tubes. Protein concentrations were determined with Bradford assay (Biorad) and lysates were diluted to equal concentration with lysis buffer. Protein lysates were then mixed with Laemmli buffer, vortexed and heated to 95° C. for 5 min. Equal amounts of protein lysates in parallel with protein molecular weight marker (ThermoFisher) were loaded onto pre-cast polyacrylamide gels (Nupage 10 or 12% Bis Tris gel, Novex, Invitrogen) and separated by electrophoresis at 200V for 1 hour. Proteins were transferred onto polyvinylidene difluoride (PVDF) membrane (Invitrogen) using an electrophoretic transfer cell (Mini Trans-Blot, Bio-Rad) in ice-cold transfer buffer (48 mM Tris base, […], 0.1% SDS, 20% methanol (v/v)) at 300 mA for 2 hours. Membranes were blocked in 1× skimmed milk (ThermoFisher) for 1 hour at room temperature, followed by overnight incubation with primary antibody diluted in blocking buffer at 4° C. Next day membranes were washed, followed by 60 minutes incubation in the corresponding horseradish peroxidase (HRP)-conjugated secondary antibody diluted 1:2000-10000 in blocking buffer (all Abcam). Blots were developed using enhanced chemiluminescence (ECL) reagents (normal, Prime & Select) and digital images were acquired using an imaging system (Azure Biosystems). Membranes were usually stripped of antibodies and reprobed with an antibody targeting a protein serving as loading control (α-actinin for hearts & β-actin for all others). For this procedure, membranes were placed in Guanidine-HCl-based stripping solution (6M Guanidine-HCl, 0.2% Nonidet P-40, 0.1M β-mercaptoethanol, 20 mM Tris-HCl, pH 7.5 and 100 mM 2-mercaptoethanol) and incubated for 10 minutes at room temperature with gentle agitation, followed by extensive washing and re-blocking.^5
(§2) C2C12 (ATCC® CRL-1772™) myoblasts maintained in DMEM supplemented with L-glutamine (2 mM), penicillin/streptomycin (1%) and 5% fetal bovine serum (FBS) were seeded either at a density of 5×10^4 cells (<50%) per well in 24-well plates or 10^4 cells in 4-well chamber slides. Cells were with L-phenylalanine (1-10 mM)+BH4 (10 μM) and incubation with increasing concentrations of N-acetylcysteine (0.5, 2.5, 5 mM) vs. vehicle overnight as indicated. Cells were analysed for oxidative stress with MitoSOX™ (mitochondrial superoxide; 5 μM, ThermoFisher Scientific), CellROX™ (cytosolic superoxide; 5 μM, ThermoFisher Scientific), gene or protein expression, or various metabolites (see below).

C2C12 myoblasts [2] = test: Oxidative stress in C2C12 cells (CellROX cytosolic superoxide, MitoSOX mitochondrial superoxide, GSH)
Procedure: as §2
(§3) Levels of reduced glutathione (GSH; ThermoFisher), phenylalanine (BioVision) and tyrosine (BioVision) were determined from cells or plasma, with respective agents/kits following the manufacturer's recommendations. Specifically, GSH levels were estimated with the aid of ThiolTracker™ Violet fluorescent probe (ThermoFisher). Plasma and liver phenylalanine levels were determined using an enzyme-coupled, fluorometric method (BioVision). Briefly, samples were deproteinized via trichloroacetate precipitation, neutralised, tyrosinase-treated (to remove tyrosine that may interfere) and diluted to fit in the standard curve. Fluorescence reading took place at 587 nm after excitation at 535 nm. Levels of tyrosine in cells or conditioned media were determined after deproteinization using 10 kDa cut-off columns with an enzyme-coupled, colorimetric method with reading at 491 nm (BioVision).

AML-12 hepatocytes = test: AML-12 hepatocytes: p21, Pah immunoblot and tyrosine production; conditions: Nutlin3a vs. vehicle
Procedure: as §1
AML12 cells (ATCC® CRL-2254™) were maintained in DMEM/F-12 (1:1) culture media supplemented with 10% FBS, 10 μg/ml insulin, 5.5 μg/ml transferrin, 5 ng/ml selenium, 40 ng/ml dexamethasone and 1% penicillin/streptomycin. Cells were sub-cultivated from subconfluent flasks with a ratio from 1:4 to 1:8. For WB analysis, cells were plated on 6-well plates and harvested at 80-90% of confluence. AML12 cells were transfected with indicated siRNA (Table 2) at 80% confluence using Lipofectamine RNAiMAX Transfection Reagent (ThermoFischer Scientific 13778030) following the manufacturer's instructions. Transfection efficiency was constantly checked using BLOCK-IT Alexa Fluor Red Fluorescent Control (ThermoFischer Scientific 14750100).
as §3

## CC(=O)N[C@@H](CS)C(=O)O [NAC, N-acetylcysteine]
C2C12 myoblasts [1]; PA + N-acetylcysteine (0.5, 2.5, 5 mM), data not shown
  p21 induction by PA: failed to prevent
C2C12 myoblasts [2]; PA plus co-treatment (BH4 10 μM or NAC), FIG. 1f
  cytosolic superoxide levels under PA treatment: restored normal
C2C12 myoblasts [2]; PA plus co-treatment, data not shown
  reduced glutathione (GSH) levels under PA treatment: restored normal

## COc1ccc(C2=N[C@@H](c3ccc(Cl)cc3)[C@@H](c3ccc(Cl)cc3)N2C(=O)N2CCNC(=O)C2)c(OC(C)C)c1 [Nutlin3a]
AML-12 hepatocytes; FIG. 4o
  Pah: downregulated
  hepatocyte senescence (i.e. p-p53 and p21): induced
AML-12 hepatocytes; FIG. 4p
  tyrosine production (tyrosine levels in media): depressed

## N[C@@H](Cc1ccc(Cl)cc1)C(=O)O (racemic) [4-CPA, 4-chlorophenylalanine]
C2C12 myoblasts [1]; PA 5 mM + BH4 10 μM + 4-CPA 1.5 mM, FIG. 1c-d
  BH4 antagonism of PA-dependent senescence: reversed
C2C12 myoblasts [2]; PA + BH4 + 4-CPA, FIG. 1f
  BH4 rescue of superoxide levels: prevented
